Consider 15 molecules from patent publication US20260062387A1, “SALT-INDUCIBLE KINASE INHIBITOR COMPOUND AND PHARMACEUTICAL COMPOSITION INCLUDING THE SAME” (MITSUBISHI TANABE PHARMA CORPORATION, priority 2023, published 2026).

Holding throughout (format): biochemical
The target of assay [1] is GST-tagged SIK2 (Homo sapiens (Human), UniProt Q9H0K1). Description: SIK2 inhibition test (ADP-Glo Max Assay). To be noted: enzyme 3 nM, AMARA Peptide 200 μM, ATP 1 mM, 2 hours room temperature. In outline: (§1)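 GST-tagged human SIK1, SIK2 and SIK3 at 20 nM, 3 nM and 100 nM final in Tris pH 7.5 buffer, with AMARA peptide (200 μM for SIK1/SIK2, 100 μM for SIK3), 1 mM ATP and 5 mM MgCl2. Reaction ran 2 h at room temperature. ADP read by ADP-Glo Max luminescence, and IC50 fitted from 16 concentrations.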
A general note: ADP-Glo first removes unused ATP, then detects ADP through luciferase.

The target of assay [2] is GST-tagged SIK1 (Homo sapiens (Human), UniProt P57059). Description: SIK1 inhibition test (ADP-Glo Max Assay). The conditions noted are these: enzyme 20 nM, AMARA Peptide 200 μM, ATP 1 mM, 2 hours room temperature. The method in brief:
as §1

The target of assay [3] is GST-tagged SIK3 (Homo sapiens (Human), UniProt Q9Y2K2). Description: SIK3 inhibition test (ADP-Glo Max Assay). To be noted: enzyme 100 nM, AMARA Peptide 100 μM, ATP 1 mM, 2 hours room temperature. The method in brief: as §1
Sequence of GST-tagged SIK3 (Q9Y2K2 whole entry): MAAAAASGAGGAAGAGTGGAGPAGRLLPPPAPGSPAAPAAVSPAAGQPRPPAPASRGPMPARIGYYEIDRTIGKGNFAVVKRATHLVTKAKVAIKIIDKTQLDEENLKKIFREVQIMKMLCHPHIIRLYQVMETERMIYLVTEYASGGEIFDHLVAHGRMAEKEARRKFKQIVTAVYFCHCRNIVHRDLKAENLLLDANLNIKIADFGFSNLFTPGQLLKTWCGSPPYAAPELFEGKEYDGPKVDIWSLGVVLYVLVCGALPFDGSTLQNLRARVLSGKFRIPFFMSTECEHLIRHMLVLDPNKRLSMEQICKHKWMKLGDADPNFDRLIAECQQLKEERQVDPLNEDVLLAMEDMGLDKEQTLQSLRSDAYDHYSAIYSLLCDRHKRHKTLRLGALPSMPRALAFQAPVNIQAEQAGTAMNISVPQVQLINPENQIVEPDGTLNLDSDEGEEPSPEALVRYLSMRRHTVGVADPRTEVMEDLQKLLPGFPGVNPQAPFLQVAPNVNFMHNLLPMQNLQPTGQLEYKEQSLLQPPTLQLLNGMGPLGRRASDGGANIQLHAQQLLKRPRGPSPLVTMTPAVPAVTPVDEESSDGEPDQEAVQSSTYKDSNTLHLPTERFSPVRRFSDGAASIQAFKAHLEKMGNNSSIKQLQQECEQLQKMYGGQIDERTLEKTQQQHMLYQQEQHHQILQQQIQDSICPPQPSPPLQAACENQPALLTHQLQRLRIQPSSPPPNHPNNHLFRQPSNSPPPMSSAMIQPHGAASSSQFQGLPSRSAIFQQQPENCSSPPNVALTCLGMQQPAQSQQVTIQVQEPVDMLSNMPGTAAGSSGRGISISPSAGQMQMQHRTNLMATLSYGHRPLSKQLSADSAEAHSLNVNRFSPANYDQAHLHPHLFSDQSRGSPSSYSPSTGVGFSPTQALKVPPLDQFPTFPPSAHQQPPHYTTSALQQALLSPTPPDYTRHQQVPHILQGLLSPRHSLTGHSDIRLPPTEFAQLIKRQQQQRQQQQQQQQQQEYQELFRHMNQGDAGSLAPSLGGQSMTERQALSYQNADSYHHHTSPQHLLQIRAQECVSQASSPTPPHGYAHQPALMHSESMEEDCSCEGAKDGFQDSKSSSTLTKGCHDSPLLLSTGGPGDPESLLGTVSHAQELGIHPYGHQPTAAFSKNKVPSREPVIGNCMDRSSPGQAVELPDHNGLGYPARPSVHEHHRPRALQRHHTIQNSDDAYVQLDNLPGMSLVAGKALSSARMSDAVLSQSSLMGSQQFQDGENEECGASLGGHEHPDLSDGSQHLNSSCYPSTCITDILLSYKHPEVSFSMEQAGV

Sequence of GST-tagged SIK2 (Q9H0K1 whole entry): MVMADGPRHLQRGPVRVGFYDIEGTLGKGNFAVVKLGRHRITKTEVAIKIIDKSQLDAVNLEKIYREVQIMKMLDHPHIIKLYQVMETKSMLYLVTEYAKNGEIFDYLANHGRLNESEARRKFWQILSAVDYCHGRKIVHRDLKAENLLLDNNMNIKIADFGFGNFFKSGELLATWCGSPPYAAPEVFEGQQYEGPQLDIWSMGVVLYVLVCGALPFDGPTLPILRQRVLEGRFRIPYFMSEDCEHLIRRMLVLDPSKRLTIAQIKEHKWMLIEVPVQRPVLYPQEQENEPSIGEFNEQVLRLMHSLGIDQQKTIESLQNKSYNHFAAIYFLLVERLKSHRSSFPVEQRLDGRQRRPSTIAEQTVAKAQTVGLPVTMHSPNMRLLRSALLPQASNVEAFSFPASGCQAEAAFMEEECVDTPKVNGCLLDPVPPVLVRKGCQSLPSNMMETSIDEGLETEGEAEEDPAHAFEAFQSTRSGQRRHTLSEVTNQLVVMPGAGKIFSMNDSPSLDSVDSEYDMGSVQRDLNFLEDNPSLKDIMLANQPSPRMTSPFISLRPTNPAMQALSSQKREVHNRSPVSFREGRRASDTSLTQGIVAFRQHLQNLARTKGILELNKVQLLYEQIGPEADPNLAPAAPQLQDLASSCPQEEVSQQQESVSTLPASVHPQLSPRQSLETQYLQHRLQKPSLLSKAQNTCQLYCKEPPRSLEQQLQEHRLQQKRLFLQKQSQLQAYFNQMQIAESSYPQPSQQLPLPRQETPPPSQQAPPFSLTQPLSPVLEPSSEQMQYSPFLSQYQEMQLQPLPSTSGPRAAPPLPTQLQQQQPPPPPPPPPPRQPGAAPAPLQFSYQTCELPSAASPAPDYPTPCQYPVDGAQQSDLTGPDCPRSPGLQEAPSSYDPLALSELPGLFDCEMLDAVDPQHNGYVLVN
Sequence of GST-tagged SIK1 (P57059 whole entry): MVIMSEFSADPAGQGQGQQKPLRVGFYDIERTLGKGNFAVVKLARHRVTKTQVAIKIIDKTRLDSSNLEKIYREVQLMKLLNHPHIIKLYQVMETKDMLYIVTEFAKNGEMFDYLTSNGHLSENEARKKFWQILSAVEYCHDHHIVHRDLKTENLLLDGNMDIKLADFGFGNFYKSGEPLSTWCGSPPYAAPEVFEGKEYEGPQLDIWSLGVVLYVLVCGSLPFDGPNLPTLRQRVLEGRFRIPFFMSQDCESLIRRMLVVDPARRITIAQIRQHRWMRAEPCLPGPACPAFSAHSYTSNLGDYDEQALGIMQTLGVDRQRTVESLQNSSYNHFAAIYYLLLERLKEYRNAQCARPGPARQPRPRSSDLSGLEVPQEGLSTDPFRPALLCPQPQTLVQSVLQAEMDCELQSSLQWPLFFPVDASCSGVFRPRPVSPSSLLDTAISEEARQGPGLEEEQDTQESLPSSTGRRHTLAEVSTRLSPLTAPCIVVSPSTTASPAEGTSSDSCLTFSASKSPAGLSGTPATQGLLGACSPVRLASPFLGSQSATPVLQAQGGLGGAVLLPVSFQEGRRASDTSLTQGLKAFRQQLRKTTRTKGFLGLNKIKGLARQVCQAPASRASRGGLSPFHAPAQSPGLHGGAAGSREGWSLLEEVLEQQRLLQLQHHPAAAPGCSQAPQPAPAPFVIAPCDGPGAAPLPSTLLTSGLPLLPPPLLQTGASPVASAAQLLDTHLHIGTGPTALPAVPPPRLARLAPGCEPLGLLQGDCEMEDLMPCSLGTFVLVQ

In the case of `COc1cc(-c2c3c(OC)cc(-c4cnn(C)c4)cc3nn2C)cc(OC(F)F)c1C(=O)N[C@@H]1CC1(F)F` [Example 45, N-[(1R)-2,2-difluorocyclopropyl]-2-(difluoromethoxy)-6-methoxy-4-[4-methoxy-2-methyl-6-(1-methylpyrazol-4-yl)indazol-3-yl]benzamide], the IC50 – broadly, the concentration that inhibits the measured activity by half – amounted to 8.6 nM in assay [1], 18.9 nM in assay [2] and 9.4 nM in assay [3].

Regarding `COc1cc(-c2c3c(OCC[C@H](C)O)cc(-c4cnn(C)c4)cc3nn2C)cc(OC(F)F)c1C(=O)N1CC(O)(C(F)(F)F)C1` [Example 47, [2-(difluoromethoxy)-4-[4-[(3S)-3-hydroxybutoxy]-2-methyl-6-(1-methylpyrazol-4-yl)indazol-3-yl]-6-methoxyphenyl]-[3-hydroxy-3-(trifluoromethyl)azetidin-1-yl]methanone], the IC50 turned out to be 16.2 nM in assay [1], 9 nM in assay [2] and 19.2 nM in assay [3].

With `COc1cc(-c2c3c(OCc4cnccn4)cc(-c4cnn(C)c4)cc3nn2C)cc(OC(F)F)c1C(=O)N1CC(O)(C(F)(F)F)C1` [Example 48, [2-(difluoromethoxy)-6-methoxy-4-[2-methyl-6-(1-methylpyrazol-4-yl)-4-(pyrazin-2-ylmethoxy)indazol-3-yl]phenyl]-[3-hydroxy-3-(trifluoromethyl)azetidin-1-yl]methanone], the results for the IC50 in assay [1], in assay [2] and in assay [3] were 10.6 nM, 3.5 nM and 11.2 nM, respectively.

In the case of `COc1cc(-c2c3c(OCc4cnc(C)s4)cc(-c4cnn(C)c4)cc3nn2C)cc(OC(F)F)c1C(=O)N1CC(O)(C(F)(F)F)C1` [Example 49, [2-(difluoromethoxy)-6-methoxy-4-[2-methyl-6-(1-methylpyrazol-4-yl)-4-[(2-methyl-1,3-thiazol-5-yl)methoxy]indazol-3-yl]phenyl]-[3-hydroxy-3-(trifluoromethyl)azetidin-1-yl]methanone], the IC50 is 11.2 nM in assay [1], 3.9 nM in assay [2] and 9.7 nM in assay [3].

With `COc1cc(-c2c3c(OCc4ccc(C)nc4)cc(-c4cnn(C)c4)cc3nn2C)cc(OC(F)F)c1C(=O)N1CC(O)(C(F)(F)F)C1` [Example 50, [2-(difluoromethoxy)-6-methoxy-4-[2-methyl-6-(1-methylpyrazol-4-yl)-4-[(6-methylpyridin-3-yl)methoxy]indazol-3-yl]phenyl]-[3-hydroxy-3-(trifluoromethyl)azetidin-1-yl]methanone], the IC50 is 5 nM in assay [1], 6.8 nM in assay [2] and 17.1 nM in assay [3].

As for `COc1cc(-c2c3c(OCc4ccnnc4)cc(-c4cnn(C)c4)cc3nn2C)cc(OC(F)F)c1C(=O)N1CC(O)(C(F)(F)F)C1` [Example 51, [2-(difluoromethoxy)-6-methoxy-4-[2-methyl-6-(1-methylpyrazol-4-yl)-4-(pyridazin-4-ylmethoxy)indazol-3-yl]phenyl]-[3-hydroxy-3-(trifluoromethyl)azetidin-1-yl]methanone], the IC50 in assay [1] came to 8.9 nM; in assay [2] it was 8.6 nM; in assay [3], 14.1 nM.

As for `COc1cc(-c2c3c(OCc4cnn(C)c4)cc(-c4cnn(C)c4)cc3nn2C)cc(OC(F)F)c1C(=O)N1CC(O)(C(F)(F)F)C1` [Example 52, [2-(difluoromethoxy)-6-methoxy-4-[2-methyl-6-(1-methylpyrazol-4-yl)-4-[(1-methylpyrazol-4-yl)methoxy]indazol-3-yl]phenyl]-[3-hydroxy-3-(trifluoromethyl)azetidin-1-yl]methanone], the IC50 was determined as 6 nM in assay [1], 6.2 nM in assay [2] and 9.2 nM in assay [3].

Turning to `COc1cc(-c2c3c(OCc4nnc(C)o4)cc(-c4cnn(C)c4)cc3nn2C)cc(OC(F)F)c1C(=O)N1CC(O)(C(F)(F)F)C1` [Example 53, [2-(difluoromethoxy)-6-methoxy-4-[2-methyl-4-[(5-methyl-1,3,4-oxadiazol-2-yl)methoxy]-6-(1-methylpyrazol-4-yl)indazol-3-yl]phenyl]-[3-hydroxy-3-(trifluoromethyl)azetidin-1-yl]methanone], the IC50 in assay [1] amounted to 7.3 nM; in assay [2], 9.1 nM; in assay [3], 13.6 nM.

With `COc1cc(-c2c3c(C#N)cc(-c4cnn(CCS(C)(=O)=O)c4)cc3nn2C)cc(OC(F)F)c1C(=O)NCC1(F)CC1` [Example 54, 4-[4-cyano-2-methyl-6-[1-(2-methylsulfonylethyl)pyrazol-4-yl]indazol-3-yl]-2-(difluoromethoxy)-N-[(1-fluorocyclopropyl)methyl]-6-methoxybenzamide], the results for the IC50 in assay [1], in assay [2] and in assay [3] were 3.2 nM, 10.1 nM and 5.1 nM, respectively.

With `Cn1cc(-c2cc(C#N)c3c(-c4ccc(C(=O)N[C@@H]5CC5(F)F)c(OC(F)F)c4)n(C)nc3c2)cn1` [Example 55, 4-[4-cyano-2-methyl-6-(1-methylpyrazol-4-yl)indazol-3-yl]-N-[(1R)-2,2-difluorocyclopropyl]-2-(difluoromethoxy)benzamide], the IC50 in assay [1] was 3.5 nM; in assay [2] it was 10.4 nM; in assay [3], 2.4 nM.

With `COc1cc(-c2c3c(C#N)cc(-c4cnn(CC(C)(C)O)c4)cc3nn2C)cc(OC(F)F)c1C(=O)NCC1(F)CC1` [Example 56], the results for the IC50 in assay [1], in assay [2] and in assay [3] were 16.1 nM, 20 nM and 11.8 nM, respectively.

On to `COc1cc(-c2c3c(C#N)cc(-c4cnn(C[C@@H](C)O)c4)cc3nn2C)cc(OC(F)F)c1C(=O)NCC1(F)CC1` [Example 57, 4-[4-cyano-6-[1-[(2R)-2-hydroxypropyl]pyrazol-4-yl]-2-methylindazol-3-yl]-2-(difluoromethoxy)-N-[(1-fluorocyclopropyl)methyl]-6-methoxybenzamide], for which the results for the IC50 in assay [1], in assay [2] and in assay [3] were 10 nM, 16 nM and 9.2 nM, respectively.

Take `COc1cc(-c2c3c(C#N)cc(-c4cnn(C[C@H](C)O)c4)cc3nn2C)cc(OC(F)F)c1C(=O)NCC1(F)CC1` [Example 58, 4-[4-cyano-6-[1-[(2S)-2-hydroxypropyl]pyrazol-4-yl]-2-methylindazol-3-yl]-2-(difluoromethoxy)-N-[(1-fluorocyclopropyl)methyl]-6-methoxybenzamide]: the IC50 in assay [1] stood at 6.7 nM; in assay [2], 13.7 nM; in assay [3], 6.3 nM.

With `COc1cc(-c2c3c(C#N)cc(-c4cnn(CC5COC5)c4)cc3nn2C)cc(OC(F)F)c1C(=O)NCC1(F)CC1` [Example 59, 4-[4-cyano-2-methyl-6-[1-(oxetan-3-ylmethyl)pyrazol-4-yl]indazol-3-yl]-2-(difluoromethoxy)-N-[(1-fluorocyclopropyl)methyl]-6-methoxybenzamide], the results for the IC50 in assay [1], in assay [2] and in assay [3] were 3.8 nM, 14.1 nM and 6.6 nM, respectively.

Take `COc1cc(-c2c3c(C(F)F)cc(-c4cnn(CC(=O)N(C)C)c4)cc3nn2C)cc(OC(F)F)c1C(=O)N1CC(O)(C(F)(F)F)C1` [Example 60, 2-[4-[3-[3-(difluoromethoxy)-4-[3-hydroxy-3-(trifluoromethyl)azetidin-1-carbonyl]-5-methoxyphenyl]-4-(difluoromethyl)-2-methylindazol-6-yl]pyrazol-1-yl]-N,N-dimethylacetamide]: the IC50 was determined as 4.8 nM in assay [1], 6.9 nM in assay [2] and 4.9 nM in assay [3].
